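The concentration for 50% growth inhibition is given as GI50. The concentration for full growth arrest is given as TGI.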
Key:
Assay in all cases: DTP human tumour cell line panel, 384-well format; in the data active means GI50 below about 0.43 µM; inactive means the rest
[1] = system: 786-0 renal
[2] = system: A498 renal
[3] = system: A549 NSCLC
[4] = system: ACHN renal
[5] = system: BT-549 breast
[6] = system: CAKI-1 renal
[7] = system: CCRF-CEM leukemia
[8] = system: COLO 205 colon
[9] = system: DU-145 prostate
[10] = system: EKVX NSCLC
[11] = system: HCC-2998 colon
[12] = system: HCT-116 colon
[13] = system: HCT-15 colon
[14] = system: HL-60(TB) leukemia
[15] = system: HOP-62 NSCLC
[16] = system: HOP-92 NSCLC
[17] = system: HS 578T breast
[18] = system: HT29 colon
[19] = system: IGROV1 ovarian
[20] = system: K-562 leukemia
[21] = system: KM12 colon
[22] = system: LOX IMVI melanoma
[23] = system: M14 melanoma
[24] = system: MALME-3M melanoma
[25] = system: MCF7 breast
[26] = system: MDA-MB-231 breast
[27] = system: MDA-MB-435 melanoma
[28] = system: MDA-MB-468 breast
[29] = system: MOLT-4 leukemia
[30] = system: NCI-H226 lung
[31] = system: NCI-H23 lung
[32] = system: NCI-H322M lung
[33] = system: NCI-H460 NSCLC
[34] = system: NCI-H522 lung
[35] = system: NCI/ADR-RES ovarian
[36] = system: OVCAR-3 ovarian
[37] = system: OVCAR-4 ovarian
[38] = system: OVCAR-8 ovarian
[39] = system: PC-3 prostate
[40] = system: RPMI-8226 leukemia
[41] = system: RXF 393 renal
[42] = system: SF-268 CNS
[43] = system: SF-295 CNS
[44] = system: SF-539 CNS
[45] = system: SK-MEL-28 melanoma
[46] = system: SK-MEL-5 melanoma
[47] = system: SK-OV-3 ovarian
[48] = system: SN12C renal
[49] = system: SNB-19 CNS
[50] = system: SNB-75 CNS
[51] = system: SR leukemia
[52] = system: SW-620 colon
[53] = system: T-47D breast
[54] = system: TK-10 renal
[55] = system: U251 glioblastoma
[56] = system: UACC-257 melanoma
[57] = system: UACC-62 melanoma
[58] = system: UO-31 renal

CNCCN(C)Cc1cn[nH]c1-c1ccc(OC2CC(OCCC3CCOCC3)C2)cc1 (stereo unspecified)
71.5 µM: TGI [18]
12.4 µM: TGI [14]
56.2 µM: TGI [24]
25 µM: TGI [20]
66.6 µM: TGI [57]
inactive: GI50 [1] 41.4 µM | GI50 [2] 48.9 µM | GI50 [3] 79.6 µM | GI50 [4] 70.9 µM | GI50 [5] 61.4 µM | GI50 [6] 41.2 µM | GI50 [7] 53.8 µM | GI50 [8] 96.4 µM | GI50 [9] > 100 µM | GI50 [10] 60.6 µM | GI50 [11] 50.7 µM | GI50 [12] 36.6 µM | GI50 [13] > 100 µM | GI50 [14] 3.26 µM | GI50 [15] 58.3 µM | GI50 [16] 42.5 µM | GI50 [17] > 100 µM | GI50 [18] 24.6 µM | GI50 [19] 37.1 µM | GI50 [20] 9.91 µM | GI50 [21] > 100 µM | GI50 [22] 32.6 µM | GI50 [23] > 100 µM | GI50 [24] 13.6 µM | GI50 [25] 51.5 µM | GI50 [26] 78.8 µM | GI50 [27] > 100 µM | GI50 [28] 45.5 µM | GI50 [29] 36.8 µM | GI50 [30] > 100 µM | GI50 [31] 40 µM | GI50 [32] > 100 µM | GI50 [33] 43.8 µM | GI50 [34] > 100 µM | GI50 [35] > 100 µM | GI50 [36] 24 µM | GI50 [37] > 100 µM | GI50 [38] > 100 µM | GI50 [39] 75.4 µM | GI50 [40] 24.5 µM | GI50 [41] 69.8 µM | GI50 [42] 83.6 µM | GI50 [43] 64.5 µM | GI50 [44] 94.4 µM | GI50 [45] 43 µM | GI50 [46] 16.1 µM | GI50 [47] > 100 µM | GI50 [48] 89.2 µM | GI50 [49] > 100 µM | GI50 [50] > 100 µM | GI50 [51] 7.14 µM | GI50 [52] > 100 µM | GI50 [53] 71.2 µM | GI50 [54] 84.5 µM | GI50 [55] 51.8 µM | GI50 [56] 18.9 µM | GI50 [57] 22 µM | GI50 [58] 80.2 µM
43.3 µM: TGI [56]
> 100 µM: TGI [1] | TGI [2] | TGI [3] | TGI [4] | TGI [5] | TGI [6] | TGI [7] | TGI [8] | TGI [9] | TGI [10] | TGI [11] | TGI [12] | TGI [13] | TGI [15] | TGI [16] | TGI [17] | TGI [19] | TGI [21] | TGI [22] | TGI [23] | TGI [25] | TGI [26] | TGI [27] | TGI [28] | TGI [29] | TGI [30] | TGI [31] | TGI [32] | TGI [33] | TGI [34] | TGI [35] | TGI [36] | TGI [37] | TGI [38] | TGI [39] | TGI [40] | TGI [41] | TGI [42] | TGI [43] | TGI [44] | TGI [45] | TGI [46] | TGI [47] | TGI [48] | TGI [49] | TGI [50] | TGI [52] | TGI [53] | TGI [54] | TGI [55] | TGI [58]
15 µM: TGI [51]
